Assay results: patent US4430355A, “Condensed isothiazolo-3 (2H)-one-1-1-dioxides” (priority 1977, dated 1984)
Structures can show the parent of a compound that is named as a salt.

Legend:
[1] = Determination of the threshold concentration (taste testers, Schutz and Pilgrim method); set-up: key: mean of 5 testers; 0 = not sweet, 3 = very sweet
Procedure: From novel compounds A, B, C, D, E and F and from known comparison compounds U, V and W aqueous solutions in concentrations of 1:12500, 1:25000, 1:50000, 1:100000 and 1:200000 were prepared and evaluated by each of 5 taste testers according to the following criteria: Very sweet (=3 points); medium sweet (=2 points), slightly sweet (=1 point) and not sweet (=0 point). The tests were carried out according to the method of H. G. Schutz and F. J. Pilgrim [Food Research 22, 206 (1957)]. The dilution with perceptible sweetness was defined as the concentration at which the average value reached the evaluation points 1.0 or higher.

[2] = Evaluation of taste quality
Text: They often have a side-taste or after-taste. Novel compounds A to F are, however, characterized by a very pure sweet taste.

[3] = system: mice; test: Rotating cylinder test, muscle-relaxing and coordination inhibitory effects; type: in vivo; details: 200 mgm/kg p.o.
[4] = system: mice; test: Spontaneous motility in light beam cages; type: in vivo; details: same dosage (200 mgm/kg p.o.)
[5] = system: rats; test: Spontaneous motility in electric activity cages (Fuhrer and Feldhofer); type: in vivo
Procedure: (§1) Also, the test of the motility of rats in electric activity cages according to Fuhrer and Feldhofer [Arzneim. Forsch. […] Moreover, no effect regarding the body temperatures of the rats at a dosage of 200 mg/kg p.o. could be observed. The measurements were made after 1, 2, 3 and 4 hours after oral administration of the substance; one control group only received the distilled water solvent.

[6] = Body temperature; type: in vivo; details: rats, 200 mg/kg p.o.; 1, 2, 3 and 4 hours after administration
Procedure: as §1

[7] = system: mice; test: Hexobarbital narcosis, loss of the righting reflex; type: in vivo; details: 25 mgm/kg p.o.
Text: Compound C has no effect on the hexobarbital narcosis in mice.

[8] = system: mice; test: Tail clamp test according to Haffner, defensive reactions to pain stimuli; type: in vivo; details: 200 mgm/kg p.o.
[9] = system: mice; test: Electroshock convulsion; type: in vivo; details: 200 mgm/kg p.o.
[10] = system: male mice; test: Hypothermia caused by reserpine; type: in vivo
Text: It also has no influence on the hypothermia of male mice, which is caused by reserpine.

[11] = system: intestinal tract of the rat; test: Ulcerations in the intestinal tract; type: in vivo; details: 3 times 200 mgm/kg p.o.
[12] = system: eye of the rabbit; test: Local compatibility in the eye; type: in vivo; details: 1% solution
[13] = system: isolated, beating atrium of the rat heart; test: Isolated, beating atrium
Procedure: (§2) The compound C had no effect on the contractility and the frequency of the isolated, beating atrium of the rat heart. When compound C was given in doses of 1.0 and 3.0 and 10.0 mg/kg i.v. no effect on blood pressure, heart rate and respiration of anesthetized cats could be observed. At concentrations of 1×10^-4 mol/liter compound C had no effect on the ADP-induced, thrombine-induced and collagen-induced aggregation of the thrombozytes in the platelet-rich plasma of healthy test persons.

[14] = system: anesthetized cats; test: Blood pressure, heart rate and respiration of anesthetized cats; type: in vivo; details: anesthetized cats, 1.0, 3.0 and 10.0 mg/kg i.v.
Procedure: as §2

[15] = system: thrombozytes in the platelet-rich plasma of healthy test persons; test: Thrombozyte aggregation in platelet-rich plasma; type: cell-based; details: 1×10^-4 mol/liter
Procedure: as §2

[16] = system: water-loaded male rats; test: Secretion of Na+, K+, Cl- and liquid in water-loaded rats; type: in vivo; details: 200 mgm/kg p.o.
[17] = system: bacteria; test: Bacteriostatic effect
[18] = system: fungi; test: Fungistatic effect
[19] = system: rat; test: Orienting acute toxicity, oral, rat; type: in vivo; details: 5000 mgm/kg oral, 6 animals
Procedure: The acute toxicity was determined after oral administration to male and female mice and to male and female rats. The substances were given in an aqueous solution or as a suspension in tylose.

[20] = system: Salmonella typhimurium TA 98, TA 100, TA 1535, TA 1537, TA 1538; test: AMES-system, test for mutagenic effects, Salmonella typhimurium; type: cell-based
Procedure: Compounds C and D were tested in the AMES-system [Mutation Research 31, 347-364 (1975)] with regard to their mutagenic properties. In order to show the whole spectrum of induced molecular DNA-damages (base substitutions, frame-shift mutations, deletions) the auxotrophic bacterial strains Salmonella typhimurium TA 98, TA 100 and Escherichia coli WP 2 (P) were used as genetic indicators. The strains Salmonella typhimurium TA 1535, TA 1537 and TA 1538 were additionally used in the test of compound C.
The test for all microorganisms were carried out in a way such that the influence of a microsomal enzyme system, together with the corresponding co-factors, could be tested with regard to the test substance, and to determine the differences in enzyme induction. The tests were performed without an activating system and in the presence of an activating system. For the in vitro-activation, S-9 supernatants (fraction of the endoplasmatic reticulum) of normal, i.e. not pre-treated rats and of Aroclor 1254 (500 mg/kg) induced rats were used. From the S-9 induced fraction, 3 different concentration levels were tested.
(§3) The substance concentrations of compound C were 0.1 and 0.5 mgm/plate and the concentrations of compound D were 5, 10, 15 and 20 mg/plate.

[21] = system: Escherichia coli WP 2 (P); test: AMES-system, test for mutagenic effects, Escherichia coli; type: cell-based
Procedure: In order to show the whole spectrum of induced molecular DNA-damages (base substitutions, frame-shift mutations, deletions) the auxotrophic bacterial strains Salmonella typhimurium TA 98, TA 100 and Escherichia coli WP 2 (P) were used as genetic indicators.
The test for all microorganisms were carried out in a way such that the influence of a microsomal enzyme system, together with the corresponding co-factors, could be tested with regard to the test substance, and to determine the differences in enzyme induction. The tests were performed without an activating system and in the presence of an activating system. […] From the S-9 induced fraction, 3 different concentration levels were tested.

[22] = system: microorganism growth; test: Series dilution essay, inhibition of the microorganism growth; type: cell-based; details: highest dosages (C 0.5 mgm/plate, D 20 mg/plate)
Procedure: as §3

[23] = Determination of the relative sweetening power in comparison to saccharose (taste testers, 3% saccharose solution); details: compared with 3% aqueous solution of saccharose
Text: The relative sweetening power (often also defined as degree of sweetness) of sweetening agents in comparison to saccharose (cane sugar) varies with the concentrations within wide limits. Thus, in the usual concentrations (corresponding to a 2-10% solution of saccharose) the relative sweetening power of saccharin varies from 200 to 700. Therefore, for the determination of the relative sweetening power of the above-mentioned compounds a 3% aqueous solution of saccharose was always used for comparison.
The further determination of the relative sweetening power was continued according to the methods of R. Pauli [Chemiker Zeitung 44, 744 (1920)] and T. Paul [Chemiker-Zeitung 45 38 (1921)]. Each test series was tested by 4 taste testers.

[24] = usual concentrations, corresponding to a 2-10% solution of saccharose; cited from earlier work
[25] = heretofore known sweetening agents; cited from earlier work
[26] = Batzinger, On and Bueding, Science 198, 944 (1977); cited from earlier work

## Cc1cc2c(s1)S(=O)(=O)NC2=O [Compound C, 5-Methyl-thieno[3,2-d]isothiazole-3-(2H)-one-1,1-dioxide sodium salt]
[1]; concentration 1:25000, sodium salt
  Average Value of Evaluation Points: 2.0
[1]; concentration 1:50000, sodium salt
  Average Value of Evaluation Points: 1.2
[2]
  taste quality compared with saccharose (cane sugar): achieve the taste quality of saccharose
[3]
  ability to hold themselves in rotating cylinders: able to hold themselves in rotating cylinders
  muscle-relaxing and coordination inhibitory effects: no muscle-relaxing and coordination inhibitory effects
[4]
  influence on spontaneous motility: does not influence the spontaneous motility of mice
[5]
  effect on spontaneous motility: did not show any effect on the spontaneous motility
[6]
  effect on body temperature: no effect
[7]
  duration of hexobarbital narcosis (loss of the righting reflex): not influenced
[8]
  influence on the defensive reactions to pain stimuli: did not show any influence
[9]
  influence on electroshock convulsion: does not influence
[10]
  influence on reserpine hypothermia: no influence
[11]
  ulcerations in the intestinal tract: does not cause any ulcerations
[12]
  local anesthesia: no local anesthesia
  mydriasis: no mydriasis
  redness of the conjunctiva: no redness of the conjunctiva
[13]
  effect on contractility: no effect
  effect on frequency: no effect
[14]
  effect on blood pressure: no effect
  effect on heart rate: no effect
  effect on respiration: no effect
[15]
  effect on ADP-induced aggregation of thrombozytes: no effect
  effect on collagen-induced aggregation of thrombozytes: no effect
  effect on thrombine-induced aggregation of thrombozytes: no effect
[16]
  secretion of Cl^-: no effect
  secretion of K^+: no effect
  secretion of Na^+: no effect
  secretion of liquid: no effect
[17]
  bacteriostatic effect: neither bacteriostatically nor fungistatically effective
[18]
  fungistatic effect: neither bacteriostatically nor fungistatically effective
[19]
  Animals which died within the observation time, 1 day: 0 animals
  Animals which died within the observation time, 7 days: 0 animals
[20]; S. typhimurium TA 1535, TA 100
  release of base substitutions: do not release base substitutions
[20]; S. typhimurium TA 1537, TA 1538, TA 98
  release of frame-shift mutations: do not release
[20]; Salmonella strains, C 0.1 and 0.5 mgm/plate, D 5-20 mg/plate, with and without activating system
  increase in the spontaneous mutation rate: did not lead to an increase
[20]; all test strains
  colonies counted on the substance plates: within the spontaneous range
[20]; all tested strains, S-9 of normal and Aroclor 1254 induced rats
  effect of the enzyme induction and of the activating fraction on the reverse mutation rate: not detectable
[20]; conclusion over all tested strains
  mutagenic potential: do not indicate a mutagenic potential
[21]; E. coli WP2 (P)
  release of base substitutions: do not release base substitutions
[21]; E. coli WP 2 (P), C 0.1 and 0.5 mgm/plate, D 5-20 mg/plate, with and without activating system
  increase in the spontaneous mutation rate: did not lead to an increase
[22]
  inhibition of the microorganism growth: did not show any inhibition

## O=C1NS(=O)(=O)c2ccccc21 [V, Saccharin, reference compound]
[1]; concentration 1:25000
  Average Value of Evaluation Points: 2.4
[1]; concentration 1:50000
  Average Value of Evaluation Points: 1.2
[1]; concentration 1:100000
  Average Value of Evaluation Points: 0.4
[23]
  Relative Sweetening Power (Saccharose = 1): 550
[24]
  relative sweetening power of saccharin: 200 to 700
[25]
  side-taste or after-taste: unpleasant after-taste
  taste quality compared with saccharose: do not have the taste quality of saccharose
[26]
  mutagenic effect: shows a mutagenic effect
